Read-outs that look alike come from different tables or passages of the source.
Experiments:
[1] = test system: Primary DRG cells; experiment: Neurite outgrowth assay (group A), paclitaxel-induced neurotoxicity; type: cell-based, C57BL/6 J mice; conditions: for neuroprotection against paclitaxel-induced neurotoxicity: 1 µM compound, 0.05 µM paclitaxel; for activity at 1 µM: Mus musculus, read-out: Neurite outgrowth (%); for Neurite outgrowth (%) A-B (extent of protection): difference between compound 1 µM + paclitaxel 0.05 µM and paclitaxel 0.05 µM alone
Description: Compounds of this invention were evaluated using the neurite outgrowth assay as described in Chen et al., Scientific Reports, 7, 45366, DOI: 10.1038/srep45366 (2017).
(§1) Cell culture. For primary culture, dorsal root ganglia (“DRG”) were removed from 7-weeks-old C57BL/6 J mice and digested with 0.1% collagenase (Sigma-Aldrich, St. Louis, MO) for 1 hour, followed by 0.25% trypsin treatment for 25 minutes. The dissociated neuron cultures were plated at a density of 2.5×10^4 cells per well in a 96 well optics plates (CLS3614; Sigma-Aldrich) precoated with 1 mg/mL poly-D-lysine (A-003-M; Sigma-Aldrich) for 3 hours. Primary DRG cells were grown in DMEM-F12 (11320033; Gibco®, ThermoFisher Scientific, Waltham, MA) supplemented with 10% fetal bovine serum (FBS, 26140079; Gibco®, ThermoFisher). These cells were maintained at 37° C. in an environment containing 5% CO2.
(§2) Neurite outgrowth assay (group A). Primary DRG cells were incubated with one of the Example 2 compounds at 1 µM for 24 hours, and then treated with 0.05 µM paclitaxel for another 24 hours. After the paclitaxel treatment, the primary DRG cells were washed by PBS and then fixed with 4% paraformaldehyde (PFA, P6148; Sigma-Aldrich) for 15 minutes. The DRG cells thus fixed were permeabilized by 0.05% Triton X-100 in PBS for 20 minutes and blocked with 3% bovine serum albumin (BSA; Sigma-Aldrich, USA) at room temperature for 1 hour. Subsequently, DRG cells were stained with rabbit anti-β III tubulin (1:600; Cell Signaling, USA) and mouse anti-NeuN monoclonal antibody (1:400; Millipore, USA) overnight at 4° C. The samples were then washed by PBS and reacted with secondary antibodies (Alexa-488 and Alexa-594 1:600; Invitrogen, CA) at room temperature for 1 hour. For image acquisition and analysis of DRG neurite outgrowth, images of stained cells were automatically acquired using 10X objective by Image Xpress Micro wide field fluorescent microscope (Molecular Devices, USA). A control was obtained following the same procedure except that the DRG cells were not treated with a compound or paclitaxel. Neurite outgrowth was measured as a percentage of outgrowth as compared to the control.
The difference between A and B indicates an extent of protection provided by the compound.

[2] = test system: Primary DRG cells; experiment: Neurite outgrowth assay (group B), oxaliplatin-induced neurotoxicity; type: cell-based, C57BL/6 J mice
Description: as §1, §2
Neurite outgrowth assay (group B). Primary DRG cells were incubated with compounds 17, 47, 97, 98, 101, 104 at 1 µM for 24 hours, and then treated with 100 µM oxaliplatin for another 48 hours. The treatment was obtained following the same procedure as group A except that the DRG cells were treated with a oxaliplatin. Neurite outgrowth was measured as a percentage of outgrowth as compared to the control.

[3] = DRG cells, 1 µM compound 24 h then 0.05 µM paclitaxel 24 h, % of untreated control

OCCCn1cc(CNc2nc(NC3CCNCC3)cc(N3CCCCC3)n2)nn1 [Compound 38]
neuroprotection against paclitaxel-induced neurotoxicity [1]: neuroprotection was provided
activity at 1 µM [1, 3]: 37%
Neurite outgrowth (%) A-B (extent of protection) [1]: 5%

O=C1[O][Pt]2([NH][C@@H]3CCCC[C@H]3[NH]2)[O]C1=O [oxaliplatin, reference compound]
neurotoxicity to DRG neurite outgrowth ([2]; 100 µM oxaliplatin 48 h): inhibiting neurite outgrowth
inhibition of DRG neurite outgrowth ([2]; 100 µM oxaliplatin, across experiments of Table 2): 60%-71
Neurite outgrowth (%) ([2]; DRG cells treated with 100 µM oxaliplatin only, % of untreated control, comparator of the compound in the same table row): 29%

COC(=O)CCOCCCn1cc(CNc2nc(NC3CCN(Cc4ccc5ccccc5c4)CC3)cc(N3CCOCC3)n2)nn1 [Compound 75]
neuroprotection against paclitaxel-induced neurotoxicity [1]: neuroprotection was provided

OCC(CO)Cn1cc(CNc2nc(NC3CCN(Cc4ccccc4)CC3)cc(N3CCOCC3)n2)nn1 [Compound 81]
neuroprotection against paclitaxel-induced neurotoxicity [1]: neuroprotection was provided
activity at 1 µM [1, 3]: 52%
Neurite outgrowth (%) A-B (extent of protection) [1]: 2%

O=P(O)(O)CCN1CCC(Nc2cc(N3CCS(=O)(=O)CC3)nc(NCc3cn(CCCO)nn3)n2)CC1 [Compound 143]
neuroprotection against paclitaxel-induced neurotoxicity [1]: neuroprotection was provided
activity at 1 µM [1, 3]: 57%
Neurite outgrowth (%) A-B (extent of protection) [1]: 7%

COC(=O)CCOCCCn1cc(CNc2nc(NC3CCN(CCC(=O)OC)CC3)cc(N3CCOCC3)n2)nn1 [Compound 66]
neuroprotection against paclitaxel-induced neurotoxicity [1]: neuroprotection was provided
activity at 1 µM [1, 3]: 52%
Neurite outgrowth (%) A-B (extent of protection) [1]: 5%

NCCCn1cc(CNc2nc(NC3CCN(C(=O)CCNC(=O)C4(O)CC(O)C(O)C(O)C4)CC3)cc(N3CCOCC3)n2)nn1 (stereo not shown) [Compound 15]
neuroprotection against paclitaxel-induced neurotoxicity [1]: neuroprotection was provided
activity at 1 µM [1, 3]: 35%
Neurite outgrowth (%) A-B (extent of protection) [1]: 3%

CC(C)(O)CCn1cc(CNc2nc(NC3CCN(CCP(=O)(O)O)CC3)cc(N3CCOCC3)n2)nn1 [Compound 60]
neuroprotection against paclitaxel-induced neurotoxicity [1]: neuroprotection was provided
activity at 1 µM [1, 3]: 40%
Neurite outgrowth (%) A-B (extent of protection) [1]: 4%

COC(=O)CCN1CCC(Nc2cc(N3CCOCC3)nc(NCc3cn(CCCO)nn3)n2)CC1 [Compound 48]
neuroprotection against paclitaxel-induced neurotoxicity [1]: neuroprotection was provided
activity at 1 µM [1, 3]: 58%
Neurite outgrowth (%) A-B (extent of protection) [1]: 11%

O=P(O)(O)CCN1CCC(Nc2cc(N3CCOCC3)nc(NCc3cn(CCCCO)nn3)n2)CC1 [Compound 117]
neuroprotection against paclitaxel-induced neurotoxicity [1]: neuroprotection was provided
activity at 1 µM [1, 3]: 58%
Neurite outgrowth (%) A-B (extent of protection) [1]: 11%

COCCCn1cc(CNc2nc(NC3CCNCC3)cc(N3CCOCC3)n2)nn1 [Compound 61]
neuroprotection against paclitaxel-induced neurotoxicity [1]: neuroprotection was provided
activity at 1 µM [1, 3]: 52%
Neurite outgrowth (%) A-B (extent of protection) [1]: 3%

COC(=O)CCOCCCn1cc(CNc2nc(NC3CCN(Cc4cccc(C(=O)OC)c4)CC3)cc(N3CCOCC3)n2)nn1 [Compound 68]
neuroprotection against paclitaxel-induced neurotoxicity [1]: neuroprotection was provided
activity at 1 µM ([1]; 24 h): 41%
Neurite outgrowth (%) A-B (extent of protection) [1]: 1%

CN1CCN(c2cc(NCc3cccnc3)nc(NCc3cn(CCCO)nn3)n2)CC1 [Compound 42]
neuroprotection against paclitaxel-induced neurotoxicity [1]: neuroprotection was provided
activity at 1 µM [1, 3]: 34%
Neurite outgrowth (%) A-B (extent of protection) [1]: 3%

O=C(O)CCN1CCC(Nc2cc(N3CCOCC3)nc(NCc3cn(CC(=O)O)nn3)n2)CC1 [Compound 6]
neuroprotection against paclitaxel-induced neurotoxicity [1]: neuroprotection was provided
activity at 1 µM ([1]; 24 h): 46%
Neurite outgrowth (%) A-B (extent of protection) [1]: 3%

CN1CCN(c2cc(NC3CCNCC3)nc(NCc3cn(CCCO)nn3)n2)CC1 [Compound 41]
neuroprotection against paclitaxel-induced neurotoxicity [1]: neuroprotection was provided
activity at 1 µM [1, 3]: 34%
Neurite outgrowth (%) A-B (extent of protection) [1]: 3%

— US20230085362A1, “PYRIMIDINE COMPOUNDS AND USE THEREOF” (National Health Research Institutes, priority 2021, published 2023)
